Assay results published in US7034036B2, “Inhibitors of ABC drug transporters at the blood-brain barrier” (Pain Therapeutics, Inc., priority 2000, dated 2006).
“Also recorded” adds a separate entry of the source.

Key:
[1] = test system: PGP1a; assay: Vanadate-sensitive PGP ATPase activity in PGP membranes; assay type: biochemical
Method: The test substances were incubated in the membranes and supplemented with MgATP, with and without sodium orthovanadate present. Orthovanadate inhibits PGP by trapping MgADP in the nucleotide binding site. Thus, the ATPase activity measured in the presence of orthovanadate represents non-PGP ATPase activity and was subtracted from the activity generated without orthovanadate to yield vanadate-sensitive ATPase activity.
ATPase assays were conducted in 96-well microtiter plates. A 0.06 ml reaction mixture containing 40 μg PGP membranes, test substance, and 4 mM MgATP, in buffer containing 50 mM Tris-MES, 2 mM EGTA, 50 mM KCl, 2 mM dithiothreitol, and 5 mM sodium azide, plus organic solvent was incubated at 37° C. for 20 minutes. […] Identical reaction mixtures containing 100 μM sodium orthovanadate were assayed in parallel. The reactions were stopped by the addition of 30 μl of 10% SDS+Antifoam A. The incubations were followed with addition of 200 μl of 35 mM Ammonium Molybdate in 15 mM Zinc Acetate:10% Ascorbic Acid (1:4) and incubated for an additional 20 minutes at 37° C. Additionally, 0.06 ml aliquots of potassium phosphate standards prepared in the buffer described above, were incubated in the plates containing the test and control substances, with SDS and detection reagent added. The liberation of inorganic phosphate was detected by its absorbance at 800 nm and quantitated by comparing the absorbance to a phosphate standard curve. The concentration dependence of the PGP was analyzed for evidence of saturation of PGP-ATPase activity, and apparent kinetic parameters were calculated by non-linear regression.

[2] = test system: mice; assay: Tail flick anti-nociception, naltrexone begun at day 6 in mice dosed daily with morphine (Groups A, B); assay type: in vivo; details: morphine 3 mg/kg daily
Method: 40 male mice were randomized into 5 groups of eight. All mice were administered single 3 mg/kg morphine daily (b.i.d.), beginning on Day 1.
In a second series of experiments, 40 female mice were randomized into 5 groups of eight. All mice were administered single 3 mg/kg morphine daily (b.i.d.), beginning on Day 1.
3 mg/kg of morphine was administered as a single bolus dose to each mouse on group 1 on a daily basis. Mice in Group 2 were also administered 3 mg/kg morphine daily.

[3] = test system: mice; assay: Tail flick anti-nociception, naltrexone given with morphine from day 1 (Groups C, D, combined analysis); assay type: in vivo; set-up: Enhancement of Latency (tail flick) / Enhancement of Latency by Naltrexone (tail flick): unit not given here
Method: In a third series of experiments, 40 male mice were randomized into 5 groups of eight. All mice were administered single 3 mg/kg morphine daily (b.i.d.), beginning on Day 1.
In a final series of experiments, 40 female mice were randomized into 5 groups of eight. All mice were administered single 3 mg/kg morphine daily (b.i.d.), beginning on Day 1.

O=C1CC[C@@]2(O)[C@H]3Cc4ccc(O)c5c4[C@@]2(CCN3CC2CC2)[C@H]1O5 [Naltrexone, naltrexone]
Vanadate-sensitive ATPase Activity ([1]; 100 μM): 4.6 nmol/mg/min
Inhibition of the ATPase associated with PGP1a ([1]; semi-quantitative assay): shown to inhibit
Naltrexone effect on tail flick latency ([2]; female mice, naltrexone 3-3000 ng/kg b.i.d. from day 6, Days 6, 8, 10): significantly different from zero in enhancing latency
Effect on morphine tolerance ([2]; morphine-tolerant mice, naltrexone 3 ng/kg daily from Day 6): broke the tolerance; also recorded: breaks tolerance
Enhancement of Latency by Naltrexone (tail flick) ([3]; Table 15, combined analysis (title prints Female Mice), Group 2: morphine 3 mg/kg + naltrexone 3 ng/kg b.i.d., Day 1): 12.8
Enhancement of Latency by Naltrexone (tail flick) ([3]; Table 15, combined analysis (title prints Female Mice), Group 2: morphine 3 mg/kg + naltrexone 3 ng/kg b.i.d., Day 3): 9.3
Enhancement of Latency by Naltrexone (tail flick) ([3]; Table 15, combined analysis (title prints Female Mice), Group 2: morphine 3 mg/kg + naltrexone 3 ng/kg b.i.d., Day 5): 5.9
Enhancement of Latency by Naltrexone (tail flick) ([3]; Table 15, combined analysis (title prints Female Mice), Group 2: morphine 3 mg/kg + naltrexone 3 ng/kg b.i.d., Day 8): 5.8
Enhancement of Latency by Naltrexone (tail flick) ([3]; Table 15, combined analysis (title prints Female Mice), Group 2: morphine 3 mg/kg + naltrexone 3 ng/kg b.i.d., Day 10): 3.5
Enhancement of Latency by Naltrexone (tail flick) ([3]; Table 15, combined analysis (title prints Female Mice), Group 3: morphine 3 mg/kg + naltrexone 30 ng/kg b.i.d., Day 1): 12.4
Enhancement of Latency by Naltrexone (tail flick) ([3]; Table 15, combined analysis (title prints Female Mice), Group 3: morphine 3 mg/kg + naltrexone 30 ng/kg b.i.d., Day 3): 10.0
Enhancement of Latency by Naltrexone (tail flick) ([3]; Table 15, combined analysis (title prints Female Mice), Group 3: morphine 3 mg/kg + naltrexone 30 ng/kg b.i.d., Day 5): 7.2
Enhancement of Latency by Naltrexone (tail flick) ([3]; Table 15, combined analysis (title prints Female Mice), Group 3: morphine 3 mg/kg + naltrexone 30 ng/kg b.i.d., Day 8): 4.9
Enhancement of Latency by Naltrexone (tail flick) ([3]; Table 15, combined analysis (title prints Female Mice), Group 3: morphine 3 mg/kg + naltrexone 30 ng/kg b.i.d., Day 10): 6.6
Enhancement of Latency by Naltrexone (tail flick) ([3]; Table 15, combined analysis (title prints Female Mice), Group 4: morphine 3 mg/kg + naltrexone 300 ng/kg b.i.d., Day 1): 15.6
Enhancement of Latency by Naltrexone (tail flick) ([3]; Table 15, combined analysis (title prints Female Mice), Group 4: morphine 3 mg/kg + naltrexone 300 ng/kg b.i.d., Day 3): 12.7
Enhancement of Latency by Naltrexone (tail flick) ([3]; Table 15, combined analysis (title prints Female Mice), Group 4: morphine 3 mg/kg + naltrexone 300 ng/kg b.i.d., Day 5): 6.8
Enhancement of Latency by Naltrexone (tail flick) ([3]; Table 15, combined analysis (title prints Female Mice), Group 4: morphine 3 mg/kg + naltrexone 300 ng/kg b.i.d., Day 8): 4.8
Enhancement of Latency by Naltrexone (tail flick) ([3]; Table 15, combined analysis (title prints Female Mice), Group 4: morphine 3 mg/kg + naltrexone 300 ng/kg b.i.d., Day 10): 6.0
Enhancement of Latency by Naltrexone (tail flick) ([3]; Table 15, combined analysis (title prints Female Mice), Group 5: morphine 3 mg/kg + naltrexone 3000 ng/kg b.i.d., Day 1): 12.9
Enhancement of Latency by Naltrexone (tail flick) ([3]; Table 15, combined analysis (title prints Female Mice), Group 5: morphine 3 mg/kg + naltrexone 3000 ng/kg b.i.d., Day 3): 11.3
Enhancement of Latency by Naltrexone (tail flick) ([3]; Table 15, combined analysis (title prints Female Mice), Group 5: morphine 3 mg/kg + naltrexone 3000 ng/kg b.i.d., Day 5): 7.7
Enhancement of Latency by Naltrexone (tail flick) ([3]; Table 15, combined analysis (title prints Female Mice), Group 5: morphine 3 mg/kg + naltrexone 3000 ng/kg b.i.d., Day 8): 6.2
Enhancement of Latency by Naltrexone (tail flick) ([3]; Table 15, combined analysis (title prints Female Mice), Group 5: morphine 3 mg/kg + naltrexone 3000 ng/kg b.i.d., Day 10): 7.0
Enhancement of Latency by Naltrexone (tail flick) ([3]; female mice, Group 2: morphine 3 mg/kg + naltrexone 3 ng/kg b.i.d. from day 1, Day 1): 12.2
Enhancement of Latency by Naltrexone (tail flick) ([3]; female mice, Group 2: morphine 3 mg/kg + naltrexone 3 ng/kg b.i.d. from day 1, Day 3): 11.0
Enhancement of Latency by Naltrexone (tail flick) ([3]; female mice, Group 2: morphine 3 mg/kg + naltrexone 3 ng/kg b.i.d. from day 1, Day 5): 4.3
Enhancement of Latency by Naltrexone (tail flick) ([3]; female mice, Group 2: morphine 3 mg/kg + naltrexone 3 ng/kg b.i.d. from day 1, Day 7): 6.1
Enhancement of Latency by Naltrexone (tail flick) ([3]; female mice, Group 2: morphine 3 mg/kg + naltrexone 3 ng/kg b.i.d. from day 1, Day 10): 4.4
Enhancement of Latency by Naltrexone (tail flick) ([3]; female mice, Group 2: morphine 3 mg/kg + naltrexone 3 ng/kg b.i.d. from day 1, Day 11, single bolus 10 μg/kg naltrexone in addition): −1.0
Enhancement of Latency by Naltrexone (tail flick) ([3]; female mice, Group 3: morphine 3 mg/kg + naltrexone 30 ng/kg b.i.d. from day 1, Day 1): 12.4
Enhancement of Latency by Naltrexone (tail flick) ([3]; female mice, Group 3: morphine 3 mg/kg + naltrexone 30 ng/kg b.i.d. from day 1, Day 3): 10.7
Enhancement of Latency by Naltrexone (tail flick) ([3]; female mice, Group 3: morphine 3 mg/kg + naltrexone 30 ng/kg b.i.d. from day 1, Day 5): 6.9
Enhancement of Latency by Naltrexone (tail flick) ([3]; female mice, Group 3: morphine 3 mg/kg + naltrexone 30 ng/kg b.i.d. from day 1, Day 7): 2.4
Enhancement of Latency by Naltrexone (tail flick) ([3]; female mice, Group 3: morphine 3 mg/kg + naltrexone 30 ng/kg b.i.d. from day 1, Day 10): 9.3
Enhancement of Latency by Naltrexone (tail flick) ([3]; female mice, Group 3: morphine 3 mg/kg + naltrexone 30 ng/kg b.i.d. from day 1, Day 11, single bolus 10 μg/kg naltrexone in addition): −0.7
Enhancement of Latency by Naltrexone (tail flick) ([3]; female mice, Group 4: morphine 3 mg/kg + naltrexone 300 ng/kg b.i.d. from day 1, Day 1): 15.0
Enhancement of Latency by Naltrexone (tail flick) ([3]; female mice, Group 4: morphine 3 mg/kg + naltrexone 300 ng/kg b.i.d. from day 1, Day 3): 10.3
Enhancement of Latency by Naltrexone (tail flick) ([3]; female mice, Group 4: morphine 3 mg/kg + naltrexone 300 ng/kg b.i.d. from day 1, Day 5): 1.9
